The target in assay [1] is Syk kinase (Homo sapiens, UniProt P43405). The experiment in a line: SYK Enzymatic Assay (Z-LYTE Tyr 2 peptide). The format is biochemical. The settings on record: 8 concentrations 1 μM down to 0.0003 μM. A digest of the protocol:
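Z-LYTE format using Tyr 2 peptide. After the 1 h room-temperature kinase reaction, development reagent was added for 1 h, then stop reagent. Fluorescence was read at 445 and 520 nm. Compounds were tested at 8 concentrations, 1 μM down to 0.0003 μM (1:3 dilutions).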

Assay [2] concerns RBL-2H3 cells. The assay is described as follows: IgE-induced Beta-hexosaminidase secretion in RBL-2H3 cells. The assay is classed as cell-based. The note with it: DNP-BSA stimulation. The procedure:
For the determination of IgE-induced Beta-hexosaminidase secretion, RBL-2H3 cells (SIBS) are seeded in 96 well plates at 4×10^4 cells per well and incubated in MEM media with 15% FBS and Glutamine ([…]) for 4 hours and sensitized with 0.5 ug/ml of SPE-7 overnight. Cells are washed 3 times with Tyrode's buffer and incubated in the presence or absence of various concentrations of the testing compound for 20 min at 37° C., 5% CO2. Cells are stimulated by adding 10 uL of DNP-BSA solution (150 ng/mL) to each well and incubating for 45 minutes at 37° C., 5% CO2. Then, 45 μL of the supernatant is taken and incubated with 100 μL of 1 mM 4-Nitrophenyl N-acetyl-β-D-glucosaminide (Sigma, Cat. No. N9376), which is diluted in 0.05 M citrate buffer (pH 4.5), for 1.5 hr at 37° C. The reactions are quenched by adding 185 μL of 0.05 M sodium carbonate buffer (pH 10.0). Plates are read at 405 nm on Multiskan (MK 3).

Setting [3] is: Rattus norvegicus, RBL-2H3, IgE-induced Beta-hexosaminidase secretion.

As usually defined, the IC50 is the concentration that gives 50% inhibition. Lower therefore signals inhibition by little substance.

Consider `Cc1nccn1CCS(=O)(=O)N1CCO[C@H](COc2nc(-c3ccc(N(C)C)cc3)cc3nccnc23)C1` [Compound 101, (S)—N,N-dimethyl-4-(5-((4-(2-(2-methyl-1H-imidazol-1-yl)ethylsulfonyl)morpholin-2-yl)methoxy)pyrido[4,3-b]pyrazin-7-yl)aniline], for which the results for the IC50 in assay [1] and in assay [2] (setting [3]) were 0.052 µM and 0.503 µM, respectively.

For the molecule `CN(C)c1ccc(-c2cc3nccnc3c(OC[C@@H]3CN(S(=O)(=O)CCN4CC[C@@H](O)C4)CCO3)n2)cc1` [Compound 102], the IC50 amounted to 0.038 µM in assay [1] and 0.108 µM in assay [2] (setting [3]).

Consider `CN(C)c1ccc(-c2cc3nccnc3c(OC[C@@H]3CN(S(=O)(=O)CCN4CC[C@H](O)C4)CCO3)n2)cc1` [Compound 103], for which the IC50 in assay [1] turned out to be 0.032 µM; in assay [2] (setting [3]) it was 0.325 µM.

Regarding `CN(CC#N)CCS(=O)(=O)N1CCO[C@H](COc2nc(-c3ccc(N(C)C)cc3)cc3nccnc23)C1` [Compound 104], the IC50 in assay [1] worked out at 0.038 µM; in assay [2] (setting [3]), 0.127 µM.

In the case of `Cn1ncc2cc(-c3cc4nccnc4c(OC[C@@H]4CN(S(C)(=O)=O)CCO4)n3)ccc21` [Compound 105], the IC50 was 0.039 µM in assay [1] and 0.077 µM in assay [2] (setting [3]).

Consider `CN(C)c1ccc(-c2cc3nccnc3c(OC[C@@H]3CN(S(C)(=O)=O)CCO3)n2)cc1Cl` [Compound 108], for which the IC50 stood at 0.019 µM in assay [1] and 0.052 µM in assay [2] (setting [3]).

For the molecule `CS(=O)(=O)N1CCO[C@H](COc2nc(-c3ccc4c(c3)OCCO4)cc3nccnc23)C1` [Compound 109], the IC50 in assay [1] stood at 0.097 µM; in assay [2] (setting [3]) it was 0.131 µM.

For the molecule `CS(=O)(=O)N1CCO[C@H](COc2nc(-c3ccc4c(c3)OCO4)cc3nccnc23)C1` [Compound 110], the figures for the IC50 in assay [1] and in assay [2] (setting [3]) were 0.211 µM and 0.163 µM, respectively.

Regarding `CS(=O)(=O)N1CCO[C@H](COc2nc(-c3ccc4ncccc4c3)cc3nccnc23)C1` [Compound 111], the IC50 was 0.117 µM in assay [1] and 0.119 µM in assay [2] (setting [3]).

Consider `CCN(CC)c1ccc(-c2cc3nccnc3c(OC[C@@H]3CN(S(C)(=O)=O)CCO3)n2)cc1` [Compound 119], for which the IC50 in assay [1] worked out at 0.016 µM; in assay [2] (setting [3]), 0.034 µM.

In the case of `Cn1ccc2ccc(-c3cc4nccnc4c(OC[C@@H]4CN(S(C)(=O)=O)CCO4)n3)cc21` [Compound 120], the IC50 in assay [1] is 0.061 µM; in assay [2] (setting [3]) it was 0.041 µM.

As to `CC(=O)N1CCN(c2ccc(-c3cc4nccnc4c(OC[C@@H]4CN(S(C)(=O)=O)CCO4)n3)cc2)CC1` [Compound 122], the IC50 turned out to be 0.015 µM in assay [1] and 0.073 µM in assay [2] (setting [3]).

With `CN(C)c1ccc(-c2cc3nccnc3c(O[C@@H]3CCOC3)n2)cc1` [Compound 123], the IC50 was 0.03 µM in assay [1] and 0.035 µM in assay [2] (setting [3]).

As for `CS(=O)(=O)N1CCC(c2ccc(-c3cc4nccnc4c(O[C@@H]4CCOC4)n3)cc2)CC1` [Compound 124], the IC50 in assay [1] worked out at 0.033 µM; in assay [2] (setting [3]), 0.045 µM.

On to `CN1CCN(c2ccc(-c3cc4nccnc4c(O[C@@H]4CCOC4)n3)cc2)CC1` [Compound 125], for which the IC50 amounted to 0.031 µM in assay [1] and 0.043 µM in assay [2] (setting [3]).

On to `COc1cc(-c2cc3nccnc3c(OC[C@@H]3CN(S(C)(=O)=O)CCO3)n2)ccc1OCCN(C)C` [Compound 126], for which the values for the IC50 in assay [1] and in assay [2] (setting [3]) were 0.041 µM and 0.366 µM, respectively.

In the case of `CN(C)c1ccc(-c2cc3nccnc3c(OC3CCCOC3)n2)cc1` (centres unmarked) [Compound 127], the results for the IC50 in assay [1] and in assay [2] (setting [3]) were 0.058 µM and 0.077 µM, respectively.

As to `CNC(=O)COc1ccc(-c2cc3nccnc3c(OC[C@@H]3CN(S(C)(=O)=O)CCO3)n2)cc1` [Compound 129], the IC50 in assay [1] amounted to 0.05 µM; in assay [2] (setting [3]), 0.23 µM.

Regarding `CCN(CC)c1ccc(-c2cc3nccnc3c(OC[C@@H]3CN(C(C)=O)CCO3)n2)cc1` [Compound 131], the IC50 in assay [1] came to 0.028 µM; in assay [2] (setting [3]), 0.039 µM.

Regarding `CNc1ccc(-c2cc3nccnc3c(O[C@@H]3CCOC3)n2)cc1` [Compound 133], the results for the IC50 in assay [1] and in assay [2] (setting [3]) were 0.045 µM and 0.024 µM, respectively.

Consider `Cc1cc(-c2cc3nccnc3c(OC[C@@H]3CN(S(C)(=O)=O)CCO3)n2)ccc1N(C)C` [Compound 134], for which the IC50 in assay [1] was 0.003 µM; in assay [2] (setting [3]), 0.015 µM.

For the molecule `CN(C)c1ccc(-c2cc3nccnc3c(OC[C@@H]3CN(C(N)=O)CCO3)n2)cc1` [Compound 136], the concentration for half-maximal inhibition (IC50) in assay [1] amounted to 0.025 µM; in assay [2] (setting [3]), 0.099 µM.

In the case of `CNC(=O)N1CCO[C@H](COc2nc(-c3ccc(N(C)C)cc3)cc3nccnc23)C1` [Compound 137], the IC50 was found to be 0.028 µM in assay [1] and 0.045 µM in assay [2] (setting [3]).

For the molecule `CC(=O)N1CCO[C@H](COc2nc(-c3ccc(N(C)C)c(F)c3)cc3nccnc23)C1` [Compound 139], the IC50 in assay [1] is 0.095 µM; in assay [2] (IgE-induced Beta-hexosaminidase secretion), 0.194 µM; in assay [2] (setting [3]) it was 0.119 µM.

With `CC(=O)N1CCO[C@H](COc2nc(-c3ccc(N(C)C)c(Cl)c3)cc3nccnc23)C1` [Compound 140], the values for the IC50 in assay [1] and in assay [2] (setting [3]) were 0.052 µM and 0.031 µM, respectively.

For the molecule `CC(=O)N1CCO[C@H](COc2nc(-c3ccc(NC(C)C)cc3)cc3nccnc23)C1` [Compound 141], the IC50 is 0.098 µM in assay [1] and 0.081 µM in assay [2] (setting [3]).

In the case of `COc1ccc(-c2cc3nccnc3c(OC[C@@H]3CN(C(N)=O)CCO3)n2)cc1OC` [Compound 142, (S)-2-(((7-(3,4-dimethoxyphenyl)pyrido[3,4-b]pyrazin-5-yl)oxy)methyl)morpholine-4-carboxamide], the IC50 in assay [1] is 0.068 µM; in assay [2] (setting [3]) it was 0.95 µM.

`CNC(=O)N1CCO[C@H](COc2nc(-c3ccc(OC)c(OC)c3)cc3nccnc23)C1` [Compound 143]: the IC50 stood at 0.08 µM in assay [1] and 0.244 µM in assay [2] (setting [3]).

For the molecule `CC(=O)N1CCO[C@H](COc2nc(-c3ccc(N(C)C(C)C)cc3)cc3nccnc23)C1` [Compound 144, (S)-1-(2-(((7-(4-(isopropyl(methyl)amino)phenyl)pyrido[3,4-b]pyrazin-5-yl)oxy)methyl)morpholino)ethanone], the results for the IC50 in assay [1] and in assay [2] (setting [3]) were 0.057 µM and 0.08 µM, respectively.

As to `CC(=O)N1CCO[C@H](COc2nc(-c3ccc4c(c3)OCCN4C)cc3nccnc23)C1` [Compound 148], the IC50 in assay [1] is 0.095 µM; in assay [2] (setting [3]) it was 0.137 µM.

Consider `c1cnc2c(O[C@@H]3CCOC3)nc(-c3ccc(N4CCOCC4)cc3)cc2n1` [Compound 149], for which the half-inhibitory concentration (IC50) in assay [1] was 0.03 µM; in assay [2] (setting [3]) it was 0.06 µM.

As for `COc1ccc(-c2cc3nccnc3c(O[C@@H]3CCOC3)n2)cc1OC` [Compound 150], the half-inhibitory concentration (IC50) amounted to 0.092 µM in assay [1] and 0.097 µM in assay [2] (setting [3]).

Consider `CCN(CC)c1ccc(-c2cc3nccnc3c(O[C@@H]3CCOC3)n2)cc1` [Compound 151], for which the IC50 in assay [1] stood at 0.044 µM; in assay [2] (setting [3]) it was 0.043 µM.

For the molecule `CC(=O)N1CCN(c2ccc(-c3cc4nccnc4c(O[C@@H]4CCOC4)n3)cc2)CC1` [Compound 152], the IC50 in assay [1] was 0.033 µM; in assay [2] (setting [3]) it was 0.048 µM.

Take `CS(=O)(=O)N1CCN(c2ccc(-c3cc4nccnc4c(O[C@@H]4CCOC4)n3)cc2)CC1` [Compound 153]: the IC50 worked out at 0.033 µM in assay [1] and 0.026 µM in assay [2] (setting [3]).

With `CN(C)c1ccc(-c2cc3nccnc3c(O[C@@H]3CCOC3)n2)cc1Cl` [Compound 154], the IC50 in assay [1] amounted to 0.043 µM; in assay [2] (setting [3]), 0.078 µM.

`Cc1cc(-c2cc3nccnc3c(O[C@@H]3CCOC3)n2)ccc1N(C)C` [Compound 155]: the IC50 turned out to be 0.032 µM in assay [1] and 0.029 µM in assay [2] (setting [3]).

Regarding `CC(=O)N1CCC(c2ccc(-c3cc4nccnc4c(O[C@@H]4CCOC4)n3)cc2)CC1` [Compound 156], the IC50 in assay [1] turned out to be 0.038 µM; in assay [2] (setting [3]) it was 0.032 µM.

As to `CC(=O)N1CCO[C@H](COc2nc(-c3ccc(N(C)C)c(C)c3)cc3nccnc23)C1` [Compound 158], the figures for the concentration for half-maximal inhibition (IC50) in assay [1] and in assay [2] (setting [3]) were 0.03 µM and 0.032 µM, respectively.

As to `CC(=O)N1CCO[C@H](COc2nc(-c3cc(C)c(N(C)C)c(C)c3)cc3nccnc23)C1` [Compound 161], the results for the IC50 in assay [1] and in assay [2] (setting [3]) were 0.151 µM and 0.108 µM, respectively.

Take `Cc1cc(-c2cc3nccnc3c(OC[C@@H]3CN(C(N)=O)CCO3)n2)ccc1N(C)C` [Compound 163]: the results for the IC50 in assay [1] and in assay [2] (setting [3]) were 0.036 µM and 0.053 µM, respectively.

As for `CNC(=O)N1CCO[C@H](COc2nc(-c3ccc(N(C)C)c(C)c3)cc3nccnc23)C1` [Compound 164], the IC50 in assay [1] is 0.066 µM; in assay [2] (setting [3]) it was 0.082 µM.

As to `CN(C)c1ccc(-c2cc3nccnc3c(OC[C@@H]3CN(C(N)=O)CCO3)n2)cc1Cl` [Compound 165], the IC50 in assay [1] was found to be 0.048 µM; in assay [2] (setting [3]), 0.095 µM.

As to `CNC(=O)N1CCO[C@H](COc2nc(-c3ccc(N(C)C)c(Cl)c3)cc3nccnc23)C1` [Compound 166], the figures for the IC50 in assay [1] and in assay [2] (setting [3]) were 0.052 µM and 0.071 µM, respectively.

For the molecule `CN(C)c1ccc(-c2cc3nccnc3c(OC[C@@H]3CN(C(=O)C(C)(F)F)CCO3)n2)cc1` [Compound 172], the IC50 worked out at 0.05 µM in assay [1] and 0.055 µM in assay [2] (setting [3]).

Consider `CN(C)c1ccc(-c2cc3nccnc3c(OC[C@@H]3CN(C(=O)CO)CCO3)n2)cc1` [Compound 173], for which the IC50 stood at 0.032 µM in assay [1] and 0.054 µM in assay [2] (setting [3]).

In the case of `CC(C)c1ccc(-c2cc3nccnc3c(OC[C@@H]3CN(C(N)=O)CCO3)n2)cc1` [Compound 175], the IC50 was 0.055 µM in assay [1] and 0.069 µM in assay [2] (setting [3]).

The record behind these values is patent US20170152258A9, “Substituted Pyridopyrazines as Syk Inhibitors” (HUTCHISON MEDIPHARMA LIMITED, priority 2012, published 2017).
